Assay results reported in ChEMBL document CHEMBL1156584, “Metal-free artificial nucleases based on simple oxime and hydroxylamine scaffolds” (Bioorg Med Chem Lett, 2008).

Columns and labels:
[1] = test system: Escherichia coli; assay: Induction of Escherichia coli DH5alpha pBSK-2 DNA cleavage in HEPES buffer at pH 8.0 after 16 hrs by agarose gel electrophoresis
[2] = test system: Escherichia coli; assay: Ratio of Kcat to Km for induction of Escherichia coli DH5alpha pBSK-2 DNA cleavage in HEPES buffer at pH 8.0 after 16 hrs by agarose gel electrophoresis
[3] = test system: Escherichia coli; assay: Inhibition of Escherichia coli DH5alpha pBSK-2 DNA cleavage in HEPES buffer at pH 8.0 after 8 hrs by agarose gel electrophoresis in presence of distamycin; design: concentration or dose not given beside the values
[4] = test system: Escherichia coli; assay: Inhibition of Escherichia coli DH5alpha pBSK-2 DNA cleavage in HEPES buffer at pH 8.0 after 8 hrs by agarose gel electrophoresis in presence of DMSO; design: concentration or dose not given beside the values
[5] = test system: Escherichia coli; assay: Induction of Escherichia coli DH5alpha pBSK-2 DNA cleavage in PIPES buffer at pH 7.0 after 16 hrs by agarose gel electrophoresis
[6] = test system: Escherichia coli; assay: Ratio of Kcat to Km for induction of Escherichia coli DH5alpha pBSK-2 DNA cleavage in PIPES buffer at pH 7.0 after 16 hrs by agarose gel electrophoresis
[7] = test system: Escherichia coli; assay: Inhibition of Escherichia coli DH5alpha pBSK-2 DNA cleavage in CHES buffer at pH 9.0 after 8 hrs by agarose gel electrophoresis in presence of glycerol; design: scale not given: the % may be the effect or the level left
[8] = test system: Escherichia coli; assay: Induction of Escherichia coli DH5alpha pBSK-2 DNA cleavage in CHES buffer at pH 9.0 after 16 hrs by agarose gel electrophoresis
[9] = test system: Escherichia coli; assay: Ratio of Kcat to Km for induction of Escherichia coli DH5alpha pBSK-2 DNA cleavage in CHES buffer at pH 9.0 after 16 hrs by agarose gel electrophoresis

Row | SMILES | Km [1] [µM] | kcat [1] [×10⁻³ /hr] | kcat/Km [2] [M⁻¹ s⁻¹] | Activity [3] [%] | Activity [4] [%] | Km [5] [µM] | kcat [5] [×10⁻³ /hr] | kcat/Km [6] [M⁻¹ s⁻¹] | Activity [7] [%] | Km [8] [µM] | kcat [8] [×10⁻³ /hr] | kcat/Km [9] [M⁻¹ s⁻¹]
1 | ON(Cc1ccccc1)Cc1ccccc1 | 110 | 157 | 0.398 | 10 | 14 |  |  |  |  |  |  | 
2 | NOCc1ccccc1 |  |  |  | 61 | 73 |  |  |  | 71 | 70 | 424 | 1.68
3 | ONCc1ccc2c(c1)OCO2 | 60 | 187 | 0.869 | 20 | 16 |  |  |  |  |  |  | 

The remaining lines, values ahead:

Row | Km [1] [µM] | kcat [1] [×10⁻³ /hr] | kcat/Km [2] [M⁻¹ s⁻¹] | Activity [3] [%] | Activity [4] [%] | Km [5] [µM] | kcat [5] [×10⁻³ /hr] | kcat/Km [6] [M⁻¹ s⁻¹] | Activity [7] [%] | Km [8] [µM] | kcat [8] [×10⁻³ /hr] | kcat/Km [9] [M⁻¹ s⁻¹] | SMILES
4 |  |  |  | 2 | 8 | 140 | 141 | 0.28 |  |  |  |  | CN(C)c1ccc(/C=N/O)cc1
5 | 140 | 79 | 0.158 | 14 | 12 |  |  |  |  |  |  |  | CN(C)c1ccc(CNO)cc1
